In patent US12054752B2, “HLA-A2 subtype-specific PLK1-derived epitope inducing antigen-specific t cell immune response to PLK1 protein” (THE CATHOLIC UNIVERSITY OF KOREA INDUSTRY-ACADEMIC …, priority 2017, dated 2024):

Columns and labels:
[1] = test system: T2 cell lines expressing HLA-A2 molecules; assay: IFN-γ EliSpot of spleen CD8+T cells from mice electroporated with multi-epitope PLK1 recombinant DNA, against T2 cells sensitized with each epitope peptide; type: cell-based, HLA-A2 transgenic mice; conditions: CD8+T cells of spleens after electroporation with PLKWT / PLKOPT recombinant DNA 3 times at 7-day intervals, FIGS. 2A and 2B
Description: FIGS. 2A and 2B illustrate the EliSpot results confirming immune responses occurring in the spleen after HLA-A2 transgenic mice are subjected to electroporation with a recombinant DNA (FIG. 2A) including multiple wild-type PLK1 epitopes and a recombinant DNA (FIG. 2B) including multiple PLK1 epitopes optimized for recombination.
In order to use a DNA-based vaccination strategy inducing multi-epitope-specific T cell immune responses, an amino acid sequence of the predicted PLK1-derived HLA-A2 multi-epitope was linked to a furin-sensitive linker (SGSG) amino acid sensitive to a proteolytic enzyme of the Golgi apparatus and cloned into a pCI expression vector (see FIG. 1).
Recombinant DNA, PLKWT and PLKOPT were transfected into HLA-A2 transgenic mice and biological electric shock therapy was performed at 95 V (4×65 ms pulses with repoling) using an Electro square wave electroporation device (ECM830; BTX; San Diego, CA). After the biological electric shock therapy was performed 3 times at 7-day intervals, CD8+T cells of mouse spleens were isolated. IFN-γ EliSpot was performed by sensitizing T2 cell lines expressing HLA-A2 molecules with each predicted epitope peptide and using T2 cell lines as a target cell.

[2] = test system: CD8+T cells; assay: Flow cytometry of spleen CD8+T cells expressing IFN-γ and CD107a/b after dendritic cell vaccination and peptide-based TriVax vaccination; type: in vivo, HLA-A2 transgenic mice; conditions: spleen T cells cultured with PLK1 antigen; compared to the groups using PLK1477 and PLK1541 antigen-peptides; FIG. 3
Description: FIG. 3 illustrates flow cytometry analysis results confirming CD8+T cell immune responses of PLK1123 (SDFVFVVLEL, SEQ ID NO: 1), PLK1477 (TLLKYFRNYM, SEQ ID NO: 2), and PLK1541/21 (LILCPLMAAV, SEQ ID NO: 3) among PLK-1-derived epitope candidates specific for HLA-A2 with CD107a/b.
Next, HLA-A2-binding PLK1123 (SDFVFVVLEL, SEQ ID NO: 1), PLK1477 (TLLKYFRNYM, SEQ ID NO: 2), and PLK1541 (LILCPLMAAV, SEQ ID NO: 3) peptides confirmed as dominant epitopes were selected in a multi-epitope DNA-based vaccination experiment in the HLA-A2 transgenic mice, and immunized into the HLA-As transgenic mice by a dendritic cell vaccination and peptide-based TriVax vaccination (CD40 antibody/Poly-IC/epitope) strategy. After an immune response to each epitope-peptide was induced through this, T cells of the spleens were obtained and each cultured with a PLK1 antigen, and then CD8+T cells expressing IFN-γ and CD107a/b were confirmed using flow cytometry.

[3] = test system: T2 cell lines and HLA-A2 positive tumor cells; assay: IFN-γ EliSpot of CD8+T cells from peptide-immunized mice against peptide-sensitized T2 cells and tumor cells; type: in vivo, HLA-A2 transgenic mice; conditions: targets CCRF-SB, THP-1, SKM-1, SK-MEL-5 (HLA-A2 positive), HL-60 and SK-MEL-3 (HLA-A2 negative), FIG. 4A to 4C
Description: FIG. 4A to 4C illustrate the EliSpot results confirming immune responses occurring by immunization of HLA-A2 transgenic mice with PLK1123 (SDFVFVVLEL, SEQ ID NO: 1)(FIG. 4A), PLK1477 (TLLKYFRNYM, SEQ ID NO: 2)(FIG. 4B), and PLK1541/21 (LILCPLMAAV, SEQ ID NO: 3)(FIG. 4C) among PLK1-derived epitope candidates specific for HLA-2 by a dendritic cell vaccination and peptide-based vaccination strategy.
In order to examine CD8+T cell immune responses, an immune response occurring in the spleen was confirmed by immunization into HLA-A2 transgenic mice by a dendritic cell vaccination and peptide-based vaccination strategy. For this purpose, HLA-A2-binding PLK1123 ([…], SEQ ID NO: 1), PLK1477 (TLLKYFRNYM, SEQ ID NO: 2), and PLK1541 (LILCPLMAAV, SEQ ID NO: 3) peptides confirmed as dominant epitopes were selected in a multi-epitope DNA-based vaccination experiment in the HLA-A2 transgenic mice, and immunized into the HLA-As transgenic mice by a dendritic cell vaccination and peptide-based TriVax vaccination (CD40 antibody/Poly-IC/epitope) strategy. After an immune response to each epitope-peptide was induced through this, CD8+T cells were obtained by antibody-binding magnetic cell sorting, and used as effector cells for confirming an antigen-specific T cell response. […]

Row | Sequence | ability to produce IFN-γ by the activation of CD8+T cells for T2 cell lines sensitized with each epitope peptide [1] | rate of antigen-specific CD8+T cells (IFN-γ and CD107a/b) [2] | CD8+T cell responses specific for T2 cell lines and HLA-A2 positive tumor cells sensitized with PLK1-derived antigen-peptides [3]
1 | ILCPLMAAV (Human Polo-like kinase-1) [PLK1542] | high levels |  | 
2 | LILCPLMAAV (Human Polo-like kinase-1) [PLK1541 21] | high levels |  | 
3 | SDFVFVVLEL (Human Polo-like kinase-1) [PLK1123] | high levels | relatively high rate | observed
4 | TLLKYFRNYM (Human Polo-like kinase-1) [PLK1477] | high levels |  | 
